From patent US6440999B1, “Intimal thickening inhibitory agent” (Chugai Seiyaku Kabushiki Kaisha, priority 1995, dated 2002)

System: A7r5 cells derived from the aorta of a rat
Experiment: Inhibition of serum- or PDGF-stimulated proliferation of vascular smooth muscle cells, [3H]-thymidine uptake
Type: cell-based
Experimental: In order to assess the inhibitory effect of a compound of the present invention on serum- or PDGF-stimulated proliferation of vascular smooth muscle cells in vitro, the compound obtained in Example 36 was tested using A7r5 cells derived from the aorta of a rat (ATCC-CRL-1444). Further, the effect was compared with that of α-tocopherol which was reported to have an inhibitory effect on proliferation of vascular smooth muscle cells (see J. Biol. Chem., 266, pp. 6188-6194 (1991)).
Using DMEM medium containing 10% FBS, the cells were placed on 96-well microtiter plates with 5×10^3 cells/0.2 ml/well and then incubated. The medium was exchanged for 2% FBS-containing DMEM medium on the third day and then for 0.2% FBS-containing DMEM medium on the fourth day from the start of the incubation. After 48-hour incubation in the 0.2% FBS-containing DMEM medium, the medium was removed, 0.2 ml of DMEM medium and the test compound were added, and the cells were stimulated with serum (2% FBS) or PDGF (PDGF-BB: human origin, available from Becton Dickinson Labware) (4 ng/ml) to proliferate. The test compound was added to the wells in the form of a solution or suspension in ethanol in amount of 1 μl well to final compound concentrations indicated in Table 2 below and the resultant ethanol concentration of 0.5% in each well. Eight hours after the stimulation, hydroxyurea was added to a final concentration of 1.5 mM to synchronize the cell cycle strictly. After additional 14-hour incubation, the medium containing hydroxyurea was removed and the cells were washed, and DMEM medium, the test compound and the proliferation stimulator were added thereto again. Further, [^3H]-thymidine (1 μCi/well; […]; available from NEN Research) was added. The [^3H]-thymidine uptake in 5 hours was measured as an indication of cell proliferation.

## CCCCCC1(CCCCC)Cc2c(cc(C(C)(C)C)c(O)c2C(C)(C)C)O1 [Example 36, 4,6-Di-t-butyl-2,2-di-n-pentyl-5-hydroxy-2,3-dihydrobenzofuran]
100 μM, 2% FBS, uptake in 5 hours, control 42789 ± 1063, n = 3, mean ± SD
  Count by Liquid Scintillation Counter, FBS Stimulation ([3H]-thymidine uptake): 14147 ± 1372 CPM
100 μM, PDGF-BB 4 ng/ml, uptake in 5 hours, control 24517 ± 2370, n = 3, mean ± SD
  Count by Liquid Scintillation Counter, PDGF Stimulation ([3H]-thymidine uptake): 7881 ± 356 CPM
[3H]-thymidine uptake
  Inhibitory effect compared with α-tocopherol (in words): higher than that of α-tocopherol
[3H]-thymidine uptake, 100 μM
  Inhibition of serum- or PDGF-stimulated proliferation of vascular smooth muscle cells (in words): inhibits serum- or PDGF-stimulated proliferation of vascular smooth muscle cells
